# Assays:
# Type in all cases: cell-based
# T-47D cells = assay: Inhibition of cell proliferation in T-47D cells (CCK-8, 6 days); settings: 6 days of treatment, Table 3
# How it was run: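 T-47D cells at 3,000 cells/well in RPMI 1640 with 10% FBS were exposed to a concentration series of PROTAC compounds for 6 days at 37 °C, 5% CO2. Viability was read by CCK-8, and IC50 values were derived for proliferation inhibition.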
# MCF-7 cells = assay: Inhibition of cell proliferation of MCF-7 cells (CCK-8, 9 days); settings: treated for 9 days, CCK-8 kit (Table 6)
# How it was run: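 MCF-7 cells seeded at 800 cells/well in DMEM with 10% FBS, exposed to a range of compound concentrations for 9 days at 37°C, 5% CO2. Viability read by CCK-8; IC50 derived for proliferation inhibition.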
# ERα [1] = biological target: T1, ERα (Homo sapiens, UniProt P03372); assay: Degradation of ERα in T-47D cells (immunoblotting, 4 h); parameters: host or cells: T-47D
# T1 sequence (P03372 1-595): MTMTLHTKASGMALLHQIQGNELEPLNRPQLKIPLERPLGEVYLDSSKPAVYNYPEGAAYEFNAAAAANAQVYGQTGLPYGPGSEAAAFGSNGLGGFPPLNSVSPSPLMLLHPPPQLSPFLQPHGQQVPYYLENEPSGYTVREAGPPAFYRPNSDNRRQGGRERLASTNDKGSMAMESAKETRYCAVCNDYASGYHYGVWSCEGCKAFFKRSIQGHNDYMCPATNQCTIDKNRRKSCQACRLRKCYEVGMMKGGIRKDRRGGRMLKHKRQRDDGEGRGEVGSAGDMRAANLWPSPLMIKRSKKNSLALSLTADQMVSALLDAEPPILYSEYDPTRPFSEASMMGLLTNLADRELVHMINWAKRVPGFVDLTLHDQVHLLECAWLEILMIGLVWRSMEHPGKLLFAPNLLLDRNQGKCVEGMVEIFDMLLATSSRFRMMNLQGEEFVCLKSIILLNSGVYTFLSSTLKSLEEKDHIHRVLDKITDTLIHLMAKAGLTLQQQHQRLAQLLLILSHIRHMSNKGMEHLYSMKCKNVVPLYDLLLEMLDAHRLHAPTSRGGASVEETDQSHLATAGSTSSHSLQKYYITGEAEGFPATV
# How it was run: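 T-47D cells were treated with compound (final 0.15-1000 nM, DMSO) for 4 h at 37°C, 5% CO2. Cells were lysed in RIPA buffer with protease inhibitor, and ERα protein in the cleared lysate was measured by immunoblotting.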
# ERα [2] = biological target: T1, ERα; assay: Degradation of ERα in MCF-7 cells (immunoblotting, 4 h)
# How it was run: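 MCF-7 cells treated 4 h at 37°C with compounds at 0.15-1000nM final. ERα in lysates measured by immunoblot, with band grayscale normalized to an internal reference protein. Degradation rate calculated against DMSO-treated control.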
Structure (SMILES),IC50 (T-47D cells) [nM],IC50 (MCF-7 cells) [nM],Degradation rate (%) of ERα in T-47D cells (ERα [1]; 1nM compound) [%],Degradation rate (%) of ERα in T-47D cells (ERα [1]; 10nM compound) [%],Degradation rate (%) of ERα in MCF-7 cells (ERα [2]; 1nM compound) [%],Degradation rate (%) of ERα in MCF-7 cells (ERα [2]; 10nM compound) [%]
CCNC(=O)[C@@H]1CC(N2CCC3(CC2)COc2c3ccc3c2CN(C2CCC(=O)NC2=O)C3=O)CCN1C1CC2(CCN(c3ccc([C@@H]4c5ccc(O)cc5CC[C@@H]4c4ccccc4)cc3)CC2)C1 (stereo partly drawn) [H40],1.42,57.9,56,86,69,84
O=C1CCC(N2Cc3c(ccc4c3OCC43CCN(C4CCN(C5CC6(CCN(c7ccc([C@@H]8c9ccc(O)cc9CC[C@@H]8c8ccccc8)cc7)CC6)C5)[C@H](C(=O)NC5CC5)C4)CC3)C2=O)C(=O)N1 (stereo partly drawn) [H41],1.88,5.05,59,83,63,80
O=C1CCC(N2Cc3c(ccc4c3OCC43CCN(C4CCN(C(=O)C5CCN(c6ccc([C@@H]7c8ccc(O)cc8CC[C@@H]7c7ccccc7)cc6)CC5)CC4F)CC3)C2=O)C(=O)N1 (stereo partly drawn) [H42],1.32,9.28,37,73,49,77
O=C1CCC(N2Cc3c(ccc4c3OCC43CCN(C4CCN(C5CC6(CCN(c7ccc([C@@H]8c9ccc(O)cc9CC[C@@H]8c8ccccc8)cc7)CC6)C5)[C@H](C(=O)NC5CCCC5)C4)CC3)C2=O)C(=O)N1 (stereo partly drawn) [H44],3.74,5.06,53,85,36,73
O=C1CCC(N2Cc3c(ccc4c3OCC43CCN(C4CCN(C(=O)C5CCN(c6ccc([C@@H]7c8ccc(O)cc8CC[C@@H]7c7ccccc7)cc6)CC5)[C@H](C(=O)N5CCC5)C4)CC3)C2=O)C(=O)N1 (stereo partly drawn) [H45],1.47,16.2,58,78,25,61
CN(C(=O)CN1CCC2(CC1)COc1c2ccc2c1CN(C1CCC(=O)NC1=O)C2=O)C1CCC2(CC1)CCN(c1ccc([C@@H]3c4ccc(O)cc4CC[C@@H]3c3ccccc3)cc1)CC2 (stereo partly drawn) [H50],3.59,9560,11,63,32,71
C[C@@H]1Cc2c(ccc3[nH]ncc23)C(c2ccc(N3CCC(N4CC[C@@H](N5CCC6(CC5)COc5c6ccc6c5CN(C5CCC(=O)NC5=O)C6=O)[C@@H](F)C4)CC3)cn2)N1CC(F)(F)F (stereo partly drawn) [H57],26.9,7370,38,71,38,60
C[C@@H]1Cc2cc(O)ccc2[C@@H](c2c(F)cc(N3CC4(CCC(N5CCC6(CC5)COc5c6ccc6c5CN(C5CCC(=O)NC5=O)C6=O)CC4)C3)cc2F)N1CC(F)(F)F (stereo partly drawn) [I4],12.7,119,41,62,39,54
O=C1CCC(N2Cc3cc4c(cc3C2=O)OCC42CCN(CC3CCN(c4ccc([C@@H]5c6ccc(O)cc6CC[C@@H]5c5ccccc5)cc4)CC3)CC2)C(=O)N1 (stereo partly drawn) [J1],16.7,857,-6,-10,9,-14
CCN(CC(=O)N1CCC2(CC1)COc1c2ccc2c1CN(C1CCC(=O)NC1=O)C2=O)CC1CCN(c2ccc([C@@H]3c4ccc(O)cc4CC[C@@H]3c3ccccc3)cc2)CC1 (stereo partly drawn) [J12],1.1,1940,68,86,60,53
C[C@@H]1Cc2c(ccc3[nH]ncc23)C(c2ccc(N3CCC4(CCN(C(=O)CN5CCC6(CC5)COc5c6ccc6c5CN(C5CCC(=O)NC5=O)C6=O)CC4)CC3)cn2)N1CC(F)(F)F (stereo partly drawn) [J15],3.49,22000,49,80,33,66
O=C1CCC(N2Cc3c(ccc4c3OCC43CCN(C(=O)CN(CC4CC4)CC4CCN(c5ccc([C@@H]6c7ccc(O)cc7CC[C@@H]6c6ccccc6)cc5)CC4)CC3)C2=O)C(=O)N1 (stereo partly drawn) [J16],1.58,2250,35,68,17,47
O=C1CCC(N2Cc3c(ccc4c3OCC43CCN(CC(=O)N4CC5(CCN(c6ccc([C@@H]7c8ccc(O)cc8CC[C@@H]7c7ccccc7)cc6)CC5)C4)CC3)C2=O)C(=O)N1 (stereo partly drawn) [K5],1.61,132,73,85,30,58
O=C1CCC(N2Cc3c(ccc4c3OCC43CCN(C(=O)C4CCN(C5CCN(c6ccc([C@@H]7c8ccc(O)cc8CC[C@@H]7c7ccccc7)cc6)CC5)CC4)CC3)C2=O)C(=O)N1 (stereo partly drawn) [K7],1.41,10.6,63,79,55,64
O=C1CCC(N2Cc3c(ccc4c3OCC43CCN(C(=O)CN4CC5(CCN(c6ccc([C@@H]7c8ccc(O)cc8CC[C@@H]7c7ccccc7)cc6)CC5)C4)CC3)C2=O)C(=O)N1 (stereo partly drawn) [K8],2.07,10.5,67,85,44,64
O=C1CCC(N2Cc3cc4c(cc3C2=O)OCC42CCN(C3CCC4(CC3)CN(c3ccc([C@@H]5c6ccc(O)cc6CC[C@@H]5c5ccccc5)cc3)C4)CC2)C(=O)N1 (stereo partly drawn) [K17],1.54,70,23,66,14,35
CC1CN(C2CCN(c3ccc([C@@H]4c5ccc(O)cc5CC[C@@H]4c4ccccc4)cc3)CC2)CCC1N1CCC2(CC1)COc1c2ccc2c1CN(C1CCC(=O)NC1=O)C2=O (stereo partly drawn) [K19],5.34,48.6,21,56,32,63
CC1CN(C2CC3(CCN(c4ccc([C@@H]5c6ccc(O)cc6CC[C@@H]5c5ccccc5)cc4)CC3)C2)CCC1N1CCC2(CC1)COc1c2ccc2c1CN(C1CCC(=O)NC1=O)C2=O (stereo partly drawn) [K20],2.59,19.6,4,44,37,70
CC1CN(C(=O)C2CCN(c3ccc(C4c5ccc(O)cc5CCC4c4ccccc4)cc3)CC2)CCC1N1CCC2(CC1)COc1c2ccc2c1CN(C1CCC(=O)NC1=O)C2=O (stereo not drawn) [K23],1.04,5.67,61,86,57,78
O=C1CCC(N2C(=O)c3ccc4c(c3C2=O)OCC42CCN(C(=O)CN3CCC4(CCN(c5ccc([C@@H]6c7ccc(O)cc7CC[C@@H]6c6ccccc6)cc5)CC4)C3)CC2)C(=O)N1 (stereo partly drawn) [K24],1.44,32.5,48,72,31,46

# Reference: patent EP4656642A1, “ESTROGEN RECEPTOR PROTEOLYSIS TARGETING CHIMERA COMPOUND AND USE THEREOF” (GAN & LEE PHARM CO., LTD, priority 2023, dated 2024)
